Reference: PMC10408569, “Recruitment of hexahydroquinoline as anticancer scaffold targeting inhibition of wild and mutants EGFR (EGFR^WT, EGFR^T790M, and EGFR^L858R)” (Journal of Enzyme Inhibition and Medicinal Chemistry, 2023)

What was measured:
Assay in all cases: NCI-60 anticancer screening (SRB)
Assay type in all cases: cell-based
[1] = system: HCT-116; conditions: Homo sapiens; HCT-116, colon cancer; one dose 10 μM; read-out: Growth Inhibition Percentage (GI %)
[2] = system: CCRF-CEM; conditions: Homo sapiens, leukemia, one dose 10 μM, read-out: Growth Inhibition Percentage (GI %)
[3] = system: A498; conditions: Homo sapiens; A498, renal cancer; one dose 10 μM; read-out: Growth Inhibition Percentage (GI %)
[4] = system: HOP-92; conditions: Homo sapiens; HOP-92, NSC lung cancer; one dose 10 μM; read-out: Growth Inhibition Percentage (GI %)
[5] = system: HT29; conditions: Homo sapiens, HT-29; HT29, colon cancer; one dose 10 μM; read-out: Growth Inhibition Percentage (GI %)
[6] = system: OVCAR-4; conditions: Homo sapiens; OVCAR-4, ovarian cancer; one dose 10 μM; read-out: Growth Inhibition Percentage (GI %)
[7] = system: RXF 393; conditions: Homo sapiens; RXF 393, renal cancer; one dose 10 μM; read-out: Growth Inhibition Percentage (GI %)
[8] = system: SW-620; conditions: Homo sapiens; SW-620, colon cancer; one dose 10 μM; read-out: Growth Inhibition Percentage (GI %)
[9] = system: SF-295; conditions: Homo sapiens; SF-295, CNS cancer; one dose 10 μM; read-out: Growth Inhibition Percentage (GI %)
[10] = system: T-47D; conditions: Homo sapiens, T47D, breast cancer, one dose 10 μM, read-out: Growth Inhibition Percentage (GI %)
[11] = system: SK-MEL-5; conditions: Homo sapiens; SK-MEL-5, melanoma; one dose 10 μM; read-out: Growth Inhibition Percentage (GI %)
[12] = system: SR; conditions: Homo sapiens, leukemia, one dose 10 μM, read-out: Growth Inhibition Percentage (GI %)
[13] = system: SF-268; conditions: Homo sapiens; SF-268, CNS cancer; one dose 10 μM; read-out: Growth Inhibition Percentage (GI %)
[14] = system: K-562; conditions: Homo sapiens, K562; K-562, leukemia; one dose 10 μM; read-out: Growth Inhibition Percentage (GI %)
[15] = system: PC-3; conditions: Homo sapiens; PC-3, prostate cancer; one dose 10 μM; read-out: Growth Inhibition Percentage (GI %)
[16] = system: TK-10; conditions: Homo sapiens; TK-10, renal cancer; one dose 10 μM; read-out: Growth Inhibition Percentage (GI %)
[17] = system: NCI-H460; conditions: Homo sapiens; NCI-H460, NSC lung cancer; one dose 10 μM; read-out: Growth Inhibition Percentage (GI %)
[18] = system: RPMI-8226; conditions: Homo sapiens; RPMI-8226, leukemia; one dose 10 μM; read-out: Growth Inhibition Percentage (GI %)
[19] = system: LOX IMVI; conditions: Homo sapiens, melanoma, one dose 10 μM, read-out: Growth Inhibition Percentage (GI %)
[20] = system: SF-539; conditions: Homo sapiens; SF-539, CNS cancer; one dose 10 μM; read-out: Growth Inhibition Percentage (GI %)
[21] = system: SK-OV-3; conditions: Homo sapiens; SK-OV-3, ovarian cancer; one dose 10 μM; read-out: Growth Inhibition Percentage (GI %)
[22] = system: MCF7; conditions: Homo sapiens; MCF7, breast cancer; one dose 10 μM; read-out: Growth Inhibition Percentage (GI %)
[23] = system: HS 578T; conditions: Homo sapiens; HS 578T, breast cancer; one dose 10 μM; read-out: Growth Inhibition Percentage (GI %)
[24] = system: ACHN; conditions: Homo sapiens, renal cancer, one dose 10 μM, read-out: Growth Inhibition Percentage (GI %)
[25] = system: SK-MEL-28; conditions: Homo sapiens; SK-MEL-28, melanoma; one dose 10 μM; read-out: Growth Inhibition Percentage (GI %)
[26] = system: SN 12C; conditions: Homo sapiens, SN12C; SN 12C, renal cancer; one dose 10 μM; read-out: Growth Inhibition Percentage (GI %)
[27] = system: M14; conditions: Homo sapiens; M14, melanoma; one dose 10 μM; read-out: Growth Inhibition Percentage (GI %)
[28] = system: UACC-62; conditions: Homo sapiens; UACC-62, melanoma; one dose 10 μM; read-out: Growth Inhibition Percentage (GI %)

CCOC(=O)C1=C(N)N(c2ccc(Cl)cc2)C2=C(C(=O)CC(C)(C)C2)C1c1ccc([N+](=O)[O-])cc1 (racemic) [8k, (±)-Ethyl2-amino-1–(4-chlorophenyl)-7,7-dimethyl-4–(4-nitrophenyl)-5-oxo-1,4,5,6,7,8-hexahydroquinoline-3-carboxylate]
inhibition at 10 µM [1]: 34% | inhibition at 10 µM [2]: < 10% | inhibition at 10 µM [3]: < 10% | inhibition at 10 µM [4]: < 10% | inhibition at 10 µM [5]: < 10% | inhibition at 10 µM [6]: < 10% | inhibition at 10 µM [7]: < 10% | inhibition at 10 µM [8]: < 10% | inhibition at 10 µM [9]: < 10% | inhibition at 10 µM [10]: 27% | inhibition at 10 µM [11]: < 10% | inhibition at 10 µM [12]: 32% | inhibition at 10 µM [13]: < 10% | inhibition at 10 µM [14]: 26% | inhibition at 10 µM [15]: 26% | inhibition at 10 µM [16]: < 10% | inhibition at 10 µM [17]: < 10% | inhibition at 10 µM [18]: 43% | inhibition at 10 µM [19]: 21% | inhibition at 10 µM [20]: < 10% | inhibition at 10 µM [21]: < 10% | inhibition at 10 µM [22]: 19% | inhibition at 10 µM [23]: < 10% | inhibition at 10 µM [24]: 12% | inhibition at 10 µM [25]: < 10% | inhibition at 10 µM [26]: < 10% | inhibition at 10 µM [27]: < 10% | inhibition at 10 µM [28]: 29%

CCOC(=O)C1=C(N)N(c2ccccc2)C2=C(C(=O)CC(C)(C)C2)C1c1ccc(N2CCOCC2)cc1 (racemic) [8l, (±)-Ethyl 2-amino-7,7-dimethyl-4-[4-(morpholin-4-yl)phenyl]-5-oxo-1-phenyl-1,4,5,6,7,8-hexahydroquinoline-3-carboxylate]
inhibition at 10 µM [1]: < 10% | inhibition at 10 µM [2]: < 10% | inhibition at 10 µM [3]: < 10% | inhibition at 10 µM [4]: 12% | inhibition at 10 µM [5]: < 10% | inhibition at 10 µM [6]: < 10% | inhibition at 10 µM [7]: < 10% | inhibition at 10 µM [8]: < 10% | inhibition at 10 µM [9]: < 10% | inhibition at 10 µM [10]: < 10% | inhibition at 10 µM [11]: < 10% | inhibition at 10 µM [12]: 16% | inhibition at 10 µM [13]: < 10% | inhibition at 10 µM [14]: < 10% | inhibition at 10 µM [15]: < 10% | inhibition at 10 µM [16]: < 10% | inhibition at 10 µM [17]: < 10% | inhibition at 10 µM [18]: < 10% | inhibition at 10 µM [19]: < 10% | inhibition at 10 µM [20]: < 10% | inhibition at 10 µM [21]: < 10% | inhibition at 10 µM [22]: < 10% | inhibition at 10 µM [23]: < 10% | inhibition at 10 µM [24]: < 10% | inhibition at 10 µM [25]: < 10% | inhibition at 10 µM [26]: < 10% | inhibition at 10 µM [27]: < 10% | inhibition at 10 µM [28]: 17%

CCOC(=O)C1=C(N)N(c2ccc(Cl)cc2)C2=C(C(=O)CC(C)(C)C2)C1c1ccc(N2CCOCC2)cc1 (racemic) [8m, (±)-Ethyl 2-amino-1–(4-chlorophenyl)-7,7-dimethyl-4-[4-(morpholin-4-yl)phenyl]-5-oxo-1,4,5,6,7,8-hexahydroquinoline-3-carboxylate]
inhibition at 10 µM [1]: < 10% | inhibition at 10 µM [2]: < 10% | inhibition at 10 µM [3]: < 10% | inhibition at 10 µM [4]: < 10% | inhibition at 10 µM [5]: < 10% | inhibition at 10 µM [6]: < 10% | inhibition at 10 µM [7]: < 10% | inhibition at 10 µM [8]: < 10% | inhibition at 10 µM [9]: 11% | inhibition at 10 µM [10]: < 10% | inhibition at 10 µM [11]: 20% | inhibition at 10 µM [12]: < 10% | inhibition at 10 µM [13]: < 10% | inhibition at 10 µM [14]: < 10% | inhibition at 10 µM [15]: < 10% | inhibition at 10 µM [16]: < 10% | inhibition at 10 µM [17]: < 10% | inhibition at 10 µM [18]: < 10% | inhibition at 10 µM [19]: < 10% | inhibition at 10 µM [20]: < 10% | inhibition at 10 µM [21]: < 10% | inhibition at 10 µM [22]: < 10% | inhibition at 10 µM [23]: < 10% | inhibition at 10 µM [24]: < 10% | inhibition at 10 µM [25]: < 10% | inhibition at 10 µM [26]: < 10% | inhibition at 10 µM [27]: < 10% | inhibition at 10 µM [28]: 17%
